From patent US20130317073A1, “METHODS OF PEST CONTROL IN SOYBEAN” (SYNGENTA LIMITED, priority 2011, published 2013)

Tested on: Euschistus heros
Experiment: Euschistus heros (neotropical brown stink bug) contact/feeding activity on sprayed soybean plants
Assay type: in vivo
Conditions: 120 h, N-2 nymphs on sprayed 2 week old soybean plants, evaluation 5 days after infestation, average of two replicates, read-out: mortality and growth effects; for mortality at 3 ppm: Rate 3 ppm; for mortality at 6 ppm: Rate 6 ppm; for mortality at 12.5 ppm: Rate 12.5 ppm
Protocol: Euschistus heros (Neotropical Brown Stink Bug) (Contact/Feeding Activity)
2 week old soybean plants are sprayed in a turn table spray chamber with the diluted spray solutions. After drying, 2 soybean seeds are added and plants are infested with 10 N-2 nymphs of the neotropical brown stink bug Euschistus heros in plastic test boxes. Boxes are incubated in a climate chamber at 25° C. and 60% RH. Evaluation is done 5 days after infestation on mortality and growth effects. The data is an average of two replicates.

Compound	mortality at 3 ppm	mortality at 6 ppm	mortality at 12.5 ppm
Cc1cc(C2=NOC(c3cc(Cl)cc(Cl)c3)(C(F)(F)F)C2)ccc1C(=O)NC1CSC1 (stereo not drawn) [Compound 1]	65%	80%	85%
Cc1cc(C2=NOC(c3cc(Cl)cc(Cl)c3)(C(F)(F)F)C2)ccc1C(=O)NC1CS(=O)(=O)C1 (stereo not drawn) [Compound 2]	65%	95%	95%
Cc1cc(C2=NOC(c3cc(Cl)cc(Cl)c3)(C(F)(F)F)C2)ccc1C(=O)NC1(C)CSC1 (stereo not drawn) [Compound 3]	0%	20%	75%
COC(=O)N1CC(NC(=O)c2ccc(C3=NOC(c4cc(Cl)cc(Cl)c4)(C(F)(F)F)C3)cc2C)C1 (stereo not drawn) [Compound 4]	15%	25%	35%
Cc1cc(C2=NOC(c3cc(Cl)cc(Cl)c3)(C(F)(F)F)C2)ccc1C(=O)NCC(=O)CC(F)(F)F (stereo not drawn) [Compound 5]	85%	90%	100%
O=C(CNC(=O)c1ccc(C2=NOC(c3cc(Cl)cc(Cl)c3)(C(F)(F)F)C2)c2ccccc12)CC(F)(F)F (stereo not drawn) [Compound 6]	95%	100%	95%
O=C(CNC(=O)c1ccc(C2=NOC(c3cc(Cl)cc(Cl)c3)(C(F)(F)F)C2)cc1)CC(F)(F)F (stereo not drawn) [Compound 7]	5%	20%	60%
CCCCNC(=O)c1ccc(C2=NOC(c3cc(Cl)cc(Cl)c3)(C(F)(F)F)C2)cc1C (stereo not drawn) [Compound 8]	5%	35%	95%
Cc1cc(C2=NOC(c3cc(Cl)cc(Cl)c3)(C(F)(F)F)C2)ccc1C(=O)NCC(F)(F)F (stereo not drawn) [Compound 9]	15%	75%	70%
